Experiment [1] concerns the target T1, human GLP-1 receptor (hGLP-1R) (Homo sapiens, UniProt P43220).
T1 construct: expressed in transfected cells
Kind of experiment: GLP-1 receptor assay, method A (CRE-luciferase reporter, BHK cells). The class given is cell-based. In a few lines: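 hGLP-1R BHK CRE-Luc cells, thawed, in DMEM (no phenol red)/10 mM HEPES/1% ovalbumin/0.1% Pluronic F-68 ± 1% (w/v) HSA; 3 h, 37° C, 5% CO2; steadylite Plus, 30 min RT, luminescence.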
A general note: In a reporter assay the amount or activity of a reporter protein is the signal.

The target of experiment [2] is T2, human amylin receptor (hAMYR3) (Homo sapiens, UniProt O60896+P30988).
T2 construct: host or cells: BHK cells (Hollex-1 line expressing hCTR(a) and CRE-Luc), further transfected with human RAMP3
T2 sequence (P30988 25-474): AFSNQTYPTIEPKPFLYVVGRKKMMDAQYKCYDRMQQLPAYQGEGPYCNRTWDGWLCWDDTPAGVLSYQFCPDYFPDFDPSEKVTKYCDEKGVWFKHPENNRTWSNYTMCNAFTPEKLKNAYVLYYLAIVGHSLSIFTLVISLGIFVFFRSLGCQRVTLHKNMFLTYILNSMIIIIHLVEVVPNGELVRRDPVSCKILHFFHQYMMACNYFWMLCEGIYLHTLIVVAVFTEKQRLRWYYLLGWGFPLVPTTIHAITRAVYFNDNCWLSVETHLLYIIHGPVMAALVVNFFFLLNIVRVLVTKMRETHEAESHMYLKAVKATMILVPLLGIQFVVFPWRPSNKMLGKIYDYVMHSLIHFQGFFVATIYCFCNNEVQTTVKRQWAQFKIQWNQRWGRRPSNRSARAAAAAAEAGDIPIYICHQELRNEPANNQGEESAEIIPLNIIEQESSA
T2 sequence (O60896 24-148): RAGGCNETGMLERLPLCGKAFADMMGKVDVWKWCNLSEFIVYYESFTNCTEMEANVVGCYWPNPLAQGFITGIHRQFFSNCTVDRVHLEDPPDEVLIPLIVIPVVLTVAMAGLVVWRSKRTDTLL
Kind of experiment: Amylin receptor assay, method A (CRE-luciferase reporter, BHK cells). In kind it is cell-based.

In experiment [3] the test system is Male Sprague Dawley (SD) rats. Kind of experiment: Efficacy testing on appetite: acute food intake in ad libitum fed normal weight rats. In kind it is in vivo, rat. The following applies: for Food intake (relative to vehicle) Day 1: day 1 [0-24 hours]; for Food intake (relative to vehicle) Day 2: day 2 [24-48 hours]; for Food intake (relative to vehicle) Day 3: day 3 [48-72 hours]. The source says:
Male Sprague Dawley (SD) rats from Taconic, Denmark were used for the acute food intake experiments, wherein the principles of laboratory animal care were followed.
The rats arrived at least 10-14 days before the start of the experiment to allow acclimatization to experimental settings. During this period, the animals were handled (fixation by restrain in neck skin) at least 2 times. Immediately upon arrival, rats were changed to a reversed light cycle (dark from 11 am-11 pm) and were transferred to an automated food intake measuring system (HM2 system, MBRose; Faaborg, Denmark). […] To enable recording of individual food intake, rats were ID chipped. Three rats were housed in each cage. During the acclimatization period, in which the rats get used to the new light cycle and diet (LF 10% (D12450B), from Research Diets Inc.), the animals had free access to food and water. Since rats are normally active and consume most of their daily calories during the dark period, rats were dosed in the morning right before lights were turned off. Such a set-up results in the lowest data variation and highest test sensitivity. […] In each cage there were animals from three different treatment groups (to eliminate potential cage effects (e.g. cage malfunction) on primary readout: food intake). The rats were dosed once subcutaneously (s.c.) with the peptide of interest according to body weight (10 or 30 nmol/kg) in vehicle (0.5 ml/kg) using a NovoPen® (Novo Nordisk, Bagsvæed, Denmark).
The compounds of the invention were formulated (20 or 60 nmol/ml) in the following vehicle: 8 mM phosphate; 250 mM glycerol; 0.007% polysorbate 20, pH 7.4.
After dosing, the rats were returned to their home cages, where they continued to have ad libitum access to chow and water. The food consumption was recorded individually and continuously by the HM2 system from 0-72 h after test compound administration. Data obtained by the HM-2 system were stored in a HMBase SQL database (Firebird® relational database management system) and were processed by HM2Lab software (MBRose; Faaborg, Denmark) installed in an embedded computer. The feeding system is a highly sensitive system with a load resolution of 0.001 g.

Setting [4] is: hGLP-1R Potency, 1% HSA, EC50, method A, in the presence of 1% HSA.
Where [5] appears, read: method A, absence of HSA, read-out: hGLP-1R Potency, no HSA, EC50.
Where [6] appears, read: hAMYR3 Potency, 1% HSA, EC50, method A, in the presence of 1% HSA.
Setting [7] is: method A, absence of HSA, read-out: hAMYR3 Potency, no HSA, EC50.

The values that follow come from patent publication US20260174875A1 (Novo Nordisk A/S, priority 2023, published 2026).

Read-outs that look alike come from different tables or passages of the source. Numbered stars: 1 amine (or outer) side, 2 acyl side, 3 side chain; on linkers, the order of the positions; unused ones are H or OH. Square brackets hold non-standard residues; d marks the D form. Side chains are listed from the residue outwards. * marks the point of attachment. C20 diacid = O=C(O)CCCCCCCCCCCCCCCCCCC(=O)*; C18 diacid = O=C(O)CCCCCCCCCCCCCCCCC(=O)*; C16 diacid = O=C(O)CCCCCCCCCCCCCCC(=O)*; γGlu = O=C(O)[C@H](CCC(=O)[*:2])N[*:1]; AEEA = NCCOCCOCC(=O)O; Aib = CC(C)(N)C(=O)O

T1 sequence (P43220 24-463): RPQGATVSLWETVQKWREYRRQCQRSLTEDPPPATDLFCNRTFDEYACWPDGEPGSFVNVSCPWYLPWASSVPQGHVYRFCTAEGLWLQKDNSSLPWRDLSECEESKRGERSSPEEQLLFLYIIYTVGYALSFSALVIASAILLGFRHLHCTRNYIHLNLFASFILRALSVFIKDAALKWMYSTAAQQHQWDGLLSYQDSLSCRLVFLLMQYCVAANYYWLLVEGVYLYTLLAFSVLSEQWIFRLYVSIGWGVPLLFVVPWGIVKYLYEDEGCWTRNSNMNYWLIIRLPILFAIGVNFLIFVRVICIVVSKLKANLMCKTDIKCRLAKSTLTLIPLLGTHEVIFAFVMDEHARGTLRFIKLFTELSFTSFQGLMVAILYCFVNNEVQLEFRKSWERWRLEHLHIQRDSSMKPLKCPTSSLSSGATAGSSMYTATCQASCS

In the case of “H[Aib]HGTFTSDYSILLEEQAAREFIEWLLAGGPSK([AEEA-AEEA-γGlu-C20 diacid])GAPPPSGGGEASELSTAALGRLSAELHELATLPRTETGSGSP-NH2 [Compound 16]”, the EC50 (in general, the concentration giving half of the maximal effect) in experiment [1] (setting [4]) turned out to be 0.238 nM; in experiment [1] (setting [5]), 0.00274 nM; in experiment [2] (setting [6]) it was 0.166 nM; in experiment [2] (setting [7]), 0.0057 nM. Also, the “Food intake (relative to vehicle) Day 1” value in experiment [3] (single dose 10 nmol/kg) is −17%; in experiment [3] (single dose 30 nmol/kg) it was −39%. For the same substance, the “Food intake (relative to vehicle) Day 2” value in experiment [3] (single dose 10 nmol/kg) is −11%; in experiment [3] (single dose 30 nmol/kg), −22%. Besides, the “Food intake (relative to vehicle) Day 3” value in experiment [3] (single dose 10 nmol/kg) was −10%; in experiment [3] (single dose 30 nmol/kg) it was −17%.
In the case of “H[Aib]HGTFTSDYSILLEEQAAREFIEWLLAGGPSK([AEEA-AEEA-γGlu-C16 diacid])GEASELSTAALGRLSAELHRLATLPRTETGSGSP-NH2 [Compound 17]”, the concentration giving a half-maximal response (EC50) in experiment [1] (setting [4]) was 0.0131 nM; in experiment [1] (setting [5]), 0.00272 nM; in experiment [2] (setting [6]), 0.0336 nM; in experiment [2] (setting [7]), 0.00513 nM. The “Food intake (relative to vehicle) Day 1” value in experiment [3] (single dose 10 nmol/kg) is given as −84%. Further, the “Food intake (relative to vehicle) Day 2” value in experiment [3] (single dose 10 nmol/kg) is recorded as −78%. Besides, the “Food intake (relative to vehicle) Day 3” value in experiment [3] (single dose 10 nmol/kg) is recorded as −11%.
For the substance “H[Aib]HGTFTSDYSILLEEQAAREFIEWLLAGGPSRGEASHLSTAQTQRLSAELHK([AEEA-AEEA-γGlu-C18 diacid])LATLPRTETGSGSP-NH2 [Compound 69]”, the EC50 in experiment [1] (setting [4]) was 0.0204 nM; in experiment [1] (setting [5]), 0.00345 nM; in experiment [2] (setting [6]) it was 0.0789 nM; in experiment [2] (setting [7]), 0.00343 nM. In experiment [3] (single dose 10 nmol/kg), the “Food intake (relative to vehicle) Day 1” value is reported as −81%. The “Food intake (relative to vehicle) Day 2” value in experiment [3] (single dose 10 nmol/kg) is recorded as −68%. The “Food intake (relative to vehicle) Day 3” value in experiment [3] (single dose 10 nmol/kg) was −6%.
Take “H[Aib]HGTFTSDYSILLEEQAAREFIEWLLAGGPSK([AEEA-AEEA-γGlu-C18 diacid])GEASQLSTAALGRLSAELHTLATLPRTETGSGSP-NH2 [Compound 63]”: the EC50 in experiment [1] (setting [4]) amounted to 0.101 nM; in experiment [1] (setting [5]), 0.00477 nM; in experiment [2] (setting [6]), 0.0703 nM; in experiment [2] (setting [7]), 0.00286 nM. Moreover, in experiment [3] (single dose 10 nmol/kg), the “Food intake (relative to vehicle) Day 1” value is −79%. In experiment [3] (single dose 10 nmol/kg), the “Food intake (relative to vehicle) Day 2” value was −80%. Moreover, the “Food intake (relative to vehicle) Day 3” value in experiment [3] (single dose 10 nmol/kg) is recorded as −17%.
In the case of “H[Aib]HGTFTSDYSILLEEQAAREFIEWLLAGGPSK([AEEA-AEEA-γGlu-C18 diacid])GAPPPSGGGEASELSTAALGRLSAELHELATLPRTETGSGSP-NH2 [Compound 15]”, the concentration giving a half-maximal response (EC50) in experiment [1] (setting [4]) came to 0.103 nM; in experiment [1] (setting [5]), 0.00141 nM; in experiment [2] (setting [6]) it was 0.0822 nM; in experiment [2] (setting [7]) it was 0.00501 nM. The “Food intake (relative to vehicle) Day 1” value in experiment [3] (single dose 10 nmol/kg) was −30%. Moreover, the “Food intake (relative to vehicle) Day 2” value in experiment [3] (single dose 10 nmol/kg) is given as −42%. The “Food intake (relative to vehicle) Day 3” value in experiment [3] (single dose 10 nmol/kg) was −9%.
Consider “Y[Aib]EGTFTSDYSILLEEQAAREFIEWLLAGGPSK([AEEA-AEEA-γGlu-C18 diacid])GGQAPGQAPGEASHLSTAQTQRLSAELHELATLPRTETGSGSP-NH2 [Compound 38]”, for which the concentration giving a half-maximal response (EC50) in experiment [1] (setting [4]) amounted to 2.35 nM; in experiment [1] (setting [5]), 0.012 nM; in experiment [2] (setting [6]), 0.172 nM; in experiment [2] (setting [7]), 0.00363 nM. The “Food intake (relative to vehicle) Day 1” value in experiment [3] (single dose 10 nmol/kg) is recorded as −3%. Further, the “Food intake (relative to vehicle) Day 2” value in experiment [3] (single dose 10 nmol/kg) is on record as −19%. Also, in experiment [3] (single dose 10 nmol/kg), the “Food intake (relative to vehicle) Day 3” value was determined as 1%.
In the case of “H[Aib]HGTFTSDYSILLEEQAAREFIEWLLAGGPSSGAGQAPGQAPGASHLSTAQTQRLSAELHRLK([AEEA-AEEA-γGlu-C18 diacid])TLPRTETGSGSP-NH2 [Compound 91]”, the EC50 in experiment [1] (setting [4]) amounted to 0.0174 nM; in experiment [1] (setting [5]), 0.00379 nM; in experiment [2] (setting [6]) it was 0.0288 nM; in experiment [2] (setting [7]), 0.00226 nM. Further, the “Food intake (relative to vehicle) Day 1” value in experiment [3] (single dose 10 nmol/kg) is reported as −96%. Also, the “Food intake (relative to vehicle) Day 2” value in experiment [3] (single dose 10 nmol/kg) is −84%. Besides, in experiment [3] (single dose 10 nmol/kg), the “Food intake (relative to vehicle) Day 3” value is on record as −33%.
